Earlier results on 1 compound are cited in publication PMC7670640 (Pharmacology Research & Perspectives, 2020).

For the series the following is noted: prior terminated phase IIb clinical trial; cited from earlier work.

Turning to `C=C(C)[C@@H]1CC[C@]2(NCCN3CCS(=O)(=O)CC3)CC[C@]3(C)[C@H](CC[C@@H]4[C@@]5(C)CC=C(c6ccc(C(=O)O)cc6)C(C)(C)[C@@H]5CC[C@]43C)[C@@H]12` [GSK3532795], the GI intolerability result was “GI intolerability (predominantly abdominal pain and diarrhea)”.
